Legend:
Experiment in all cases: viability relative to DMSO control (fraction); higher = less drug effect (more viable cells)
Conditions in all cases: 48 h
[1] = test system: primary AML patient cells (S081)
Outline: (§1)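 Cells were incubated for 48 h at 37 °C and 5% CO2 in RPMI-1640 with penicillin/streptomycin, L-glutamine and human serum, at 4 × 10^4 cells per well in 384-well plates with compounds pre-plated at five concentrations, one well each. These were primary mononuclear tumour cells, fresh or cryopreserved, Ficoll-isolated from blood or bone marrow or obtained from processed lymph node. Viability values are CellTiter-Glo luminescence relative to the median of 16 inner DMSO wells.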

[2] = test system: primary B-PLL patient cells (S016)
Outline: as §1

[3] = test system: primary FL patient cells (S087)
Outline: as §1

[4] = test system: primary AML patient cells (S017)
Outline: as §1

[5] = test system: primary CLL patient cells (S031)
Outline: as §1

[6] = test system: primary MCL patient cells (S063)
Outline: as §1

[7] = test system: primary FL patient cells (S022)
Outline: as §1

[8] = test system: primary MCL patient cells (S053)
Outline: as §1

[9] = test system: primary AML patient cells (S021)
Outline: as §1

[10] = test system: primary MCL patient cells (S068)
Outline: as §1

[11] = test system: primary AML patient cells (S011)
Outline: as §1

[12] = test system: primary CLL patient cells (S043)
Outline: as §1

[13] = test system: primary AML patient cells (S012)
Outline: as §1

[14] = test system: primary AML patient cells (S056)
Outline: as §1

[15] = test system: primary BL patient cells (S005)
Outline: as §1

[16] = test system: primary AML patient cells (S085)
Outline: as §1

[17] = test system: primary ALL patient cells (S048)
Outline: as §1

[18] = test system: primary ALL patient cells (S088)
Outline: as §1

[19] = test system: primary AML patient cells (S060)
Outline: as §1

[20] = test system: primary AML patient cells (S006)
Outline: as §1

O=C(Nc1cccc(C(F)(F)F)c1)Nc1cc(S(=O)(=O)NC2CC2)ccc1-c1ccsc1 [AGI-6780]
viability ([1]; 0.024 µM): 0.829 | viability ([1]; 0.12 µM): 0.956 | viability ([1]; 0.6 µM): 0.878 | viability ([1]; 3 µM): 0.756 | viability ([1]; 15 µM): 0.841 | viability ([2]; 0.024 µM): 0.776 | viability ([2]; 0.12 µM): 0.947 | viability ([2]; 0.6 µM): 0.954 | viability ([2]; 3 µM): 0.851 | viability ([2]; 15 µM): 0.981 | viability ([3]; 0.024 µM): 0.891 | viability ([3]; 0.12 µM): 0.944 | viability ([3]; 0.6 µM): 0.923 | viability ([3]; 3 µM): 0.906 | viability ([3]; 15 µM): 0.798 | viability ([4]; 0.024 µM): 0.881 | viability ([4]; 0.12 µM): 0.938 | viability ([4]; 0.6 µM): 0.919 | viability ([4]; 3 µM): 0.908 | viability ([4]; 15 µM): 0.982 | viability ([5]; 0.024 µM): 0.679 | viability ([5]; 0.12 µM): 0.703 | viability ([5]; 0.6 µM): 0.727 | viability ([5]; 3 µM): 0.701 | viability ([5]; 15 µM): 0.612 | viability ([6]; 0.024 µM): 0.935 | viability ([6]; 0.12 µM): 0.969 | viability ([6]; 0.6 µM): 0.96 | viability ([6]; 3 µM): 0.843 | viability ([6]; 15 µM): 0.982 | viability ([7]; 0.024 µM): 0.826 | viability ([7]; 0.12 µM): 0.782 | viability ([7]; 0.6 µM): 0.821 | viability ([7]; 3 µM): 0.835 | viability ([7]; 15 µM): 0.775 | viability ([8]; 0.024 µM): 0.741 | viability ([8]; 0.12 µM): 0.807 | viability ([8]; 0.6 µM): 0.851 | viability ([8]; 3 µM): 0.788 | viability ([8]; 15 µM): 0.88 | viability ([9]; 0.024 µM): 0.881 | viability ([9]; 0.12 µM): 0.894 | viability ([9]; 0.6 µM): 0.878 | viability ([9]; 3 µM): 0.891 | viability ([9]; 15 µM): 0.676 | viability ([10]; 0.024 µM): 0.751 | viability ([10]; 0.12 µM): 0.809 | viability ([10]; 0.6 µM): 0.786 | viability ([10]; 3 µM): 0.722 | viability ([10]; 15 µM): 0.798 | viability ([11]; 0.024 µM): 0.76 | viability ([11]; 0.12 µM): 0.761 | viability ([11]; 0.6 µM): 0.802 | viability ([11]; 3 µM): 0.778 | viability ([11]; 15 µM): 0.666 | viability ([12]; 0.024 µM): 0.927 | viability ([12]; 0.12 µM): 1.05 | viability ([12]; 0.6 µM): 0.988 | viability ([12]; 3 µM): 0.905 | viability ([12]; 15 µM): 0.935 | viability ([13]; 0.024 µM): 1.03 | viability ([13]; 0.12 µM): 1.01 | viability ([13]; 0.6 µM): 1 | viability ([13]; 3 µM): 0.941 | viability ([13]; 15 µM): 0.868 | viability ([14]; 0.024 µM): 1.03 | viability ([14]; 0.12 µM): 0.821 | viability ([14]; 0.6 µM): 0.834 | viability ([14]; 3 µM): 0.783 | viability ([14]; 15 µM): 0.7 | viability ([15]; 0.024 µM): 0.818 | viability ([15]; 0.12 µM): 0.915 | viability ([15]; 0.6 µM): 0.932 | viability ([15]; 3 µM): 0.778 | viability ([15]; 15 µM): 0.886 | viability ([16]; 0.024 µM): 0.793 | viability ([16]; 0.12 µM): 0.809 | viability ([16]; 0.6 µM): 0.734 | viability ([16]; 3 µM): 0.672 | viability ([16]; 15 µM): 0.691 | viability ([17]; 0.024 µM): 0.7 | viability ([17]; 0.12 µM): 0.636 | viability ([17]; 0.6 µM): 0.599 | viability ([17]; 3 µM): 0.622 | viability ([17]; 15 µM): 0.61 | viability ([18]; 0.024 µM): 0.408 | viability ([18]; 0.12 µM): 0.417 | viability ([18]; 0.6 µM): 0.322 | viability ([18]; 3 µM): 0.258 | viability ([18]; 15 µM): 0.205 | viability ([19]; 0.024 µM): 0.963 | viability ([19]; 0.12 µM): 1 | viability ([19]; 0.6 µM): 0.991 | viability ([19]; 3 µM): 0.886 | viability ([19]; 15 µM): 0.91 | viability ([20]; 0.024 µM): 0.94 | viability ([20]; 0.12 µM): 1.01 | viability ([20]; 0.6 µM): 1.02 | viability ([20]; 3 µM): 0.974 | viability ([20]; 15 µM): 0.993

From the supplement of paper PMC10733146
